How the values were obtained:
[1] = Half life in rat at 2 mg/kg, iv; assay type: ADME, organism-based; design: dose 2 mg/kg, route intravenous; details: in vivo
[2] = Renal elimination in rat at 2 mg/kg, iv; assay type: ADME, organism-based; design: dose 2 mg/kg, route intravenous; details: urine, read-out: Ae
[3] = Intrinsic clearance in human hepatocytes assessed per 10^6 cells; assay type: ADME, cell-based, Hepatocyte; details: read-out: CLH
[4] = Clearance in rat at 2 mg/kg, iv; assay type: ADME, organism-based; design: dose 2 mg/kg, route intravenous; details: in vivo
[5] = Fraction unbound in dog; assay type: ADME, organism-based, Canis lupus familiaris; details: in vivo
Collagenase 3 = Collagenase 3 (Homo sapiens, UniProt P45452); test: Inhibition of recombinant human MMP13 using Mca-Pro-cyclohexyl-Ala-Gly-Nva-His-Ala- Dap(Dnp)-NH2 as substrate by fluorometric analysis; details: read-out: IC50
[6] = Volume of distribution at steady state in rat at 2 mg/kg, iv; assay type: ADME, organism-based; design: dose 2 mg/kg, route intravenous; details: in vivo, read-out: Vdss
[7] = Volume of distribution at steady state in dog at 1 mg/kg, iv and 1 mg/kg, po; assay type: ADME, organism-based, Canis lupus familiaris; details: in vivo, read-out: Vdss
[8] = Clearance in dog at 1 mg/kg, iv and 1 mg/kg, po; assay type: ADME, organism-based, Canis lupus familiaris; details: in vivo
[9] = molecular target: Matrix metalloproteinase-9 (Homo sapiens, UniProt P14780); test: Inhibition of MMP9 using Mca-Pro-cyclohexyl-Ala-Gly-Nva-His-Ala- Dap(Dnp)-NH2 as substrate by fluorometric analysis
[10] = Oral bioavailability in rat; assay type: ADME, organism-based; details: in vivo
[11] = Oral bioavailability in dog; assay type: ADME, organism-based, Canis lupus familiaris; details: in vivo
[12] = Thermodynamic solubility of the compound; details: Therm_solubility
[13] = molecular target: T1, A disintegrin and metalloproteinase with thrombospondin motifs 4 (Homo sapiens) (UniProt O75173); test: Inhibition of ADAM-TS4 using dimethoxyfluorescein-Ser-Pro-Leu-Ala-Gln-Ala- Val-Arg-ser-Ser-Arg-Cys-fluorescein as substrate
T1 sequence (whole entry): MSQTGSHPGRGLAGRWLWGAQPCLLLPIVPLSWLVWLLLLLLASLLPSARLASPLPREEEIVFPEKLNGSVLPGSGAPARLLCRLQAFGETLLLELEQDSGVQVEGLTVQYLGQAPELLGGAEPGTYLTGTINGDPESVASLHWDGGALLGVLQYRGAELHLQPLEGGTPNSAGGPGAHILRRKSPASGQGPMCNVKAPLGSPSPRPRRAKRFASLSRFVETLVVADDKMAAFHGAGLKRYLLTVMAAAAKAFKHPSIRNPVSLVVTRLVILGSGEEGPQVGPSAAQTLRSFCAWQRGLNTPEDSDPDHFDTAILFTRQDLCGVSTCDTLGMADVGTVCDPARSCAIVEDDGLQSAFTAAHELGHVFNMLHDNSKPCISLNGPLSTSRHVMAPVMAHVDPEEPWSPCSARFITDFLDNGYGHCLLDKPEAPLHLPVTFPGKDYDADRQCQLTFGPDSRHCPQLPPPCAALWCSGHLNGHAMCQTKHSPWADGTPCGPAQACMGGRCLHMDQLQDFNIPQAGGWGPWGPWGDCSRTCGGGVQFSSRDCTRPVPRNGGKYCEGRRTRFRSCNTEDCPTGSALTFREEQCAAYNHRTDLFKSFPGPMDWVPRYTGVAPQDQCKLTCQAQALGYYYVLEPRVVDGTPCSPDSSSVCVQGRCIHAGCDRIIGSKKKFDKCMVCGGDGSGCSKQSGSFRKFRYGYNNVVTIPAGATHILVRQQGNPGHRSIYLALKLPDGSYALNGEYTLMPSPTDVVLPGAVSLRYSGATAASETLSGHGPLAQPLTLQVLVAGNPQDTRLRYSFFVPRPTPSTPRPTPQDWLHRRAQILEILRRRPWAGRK

[14] = molecular target: T2, A disintegrin and metalloproteinase with thrombospondin motifs 5 (Homo sapiens) (UniProt Q9UNA0); test: Inhibition of ADAM-TS5 using dimethoxyfluorescein-Ser-Pro-Leu-Ala-Gln-Ala- Val-Arg-ser-Ser-Arg-Cys-fluorescein as substrate
T2 sequence (whole entry): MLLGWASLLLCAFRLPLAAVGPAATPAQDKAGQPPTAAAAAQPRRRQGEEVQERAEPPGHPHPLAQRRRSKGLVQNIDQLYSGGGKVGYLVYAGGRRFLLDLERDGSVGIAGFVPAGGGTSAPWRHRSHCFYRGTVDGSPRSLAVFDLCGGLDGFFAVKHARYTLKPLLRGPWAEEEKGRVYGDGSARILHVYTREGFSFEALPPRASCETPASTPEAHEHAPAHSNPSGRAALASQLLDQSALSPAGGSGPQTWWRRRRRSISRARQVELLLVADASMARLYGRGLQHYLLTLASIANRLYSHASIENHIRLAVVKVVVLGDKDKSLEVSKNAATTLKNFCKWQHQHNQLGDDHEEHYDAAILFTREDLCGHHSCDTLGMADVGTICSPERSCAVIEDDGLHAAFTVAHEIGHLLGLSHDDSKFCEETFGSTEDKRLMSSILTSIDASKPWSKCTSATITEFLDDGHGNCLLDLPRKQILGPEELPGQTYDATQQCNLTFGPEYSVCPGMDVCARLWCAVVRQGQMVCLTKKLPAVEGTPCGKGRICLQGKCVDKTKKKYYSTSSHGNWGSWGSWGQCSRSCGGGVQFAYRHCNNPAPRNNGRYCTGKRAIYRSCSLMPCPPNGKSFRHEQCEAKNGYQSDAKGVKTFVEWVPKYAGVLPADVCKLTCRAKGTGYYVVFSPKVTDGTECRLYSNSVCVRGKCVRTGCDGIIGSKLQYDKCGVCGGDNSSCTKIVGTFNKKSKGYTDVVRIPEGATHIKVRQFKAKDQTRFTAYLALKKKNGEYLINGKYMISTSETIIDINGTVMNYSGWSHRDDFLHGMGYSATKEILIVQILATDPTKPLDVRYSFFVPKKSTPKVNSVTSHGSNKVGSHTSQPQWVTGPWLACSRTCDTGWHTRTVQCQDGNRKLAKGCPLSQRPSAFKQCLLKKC

[15] = molecular target: Matrix metalloproteinase-14 (Homo sapiens, UniProt P50281); test: Inhibition of MMP14 using Mca-Pro-cyclohexyl-Ala-Gly-Nva-His-Ala- Dap(Dnp)-NH2 as substrate by fluorometric analysis
[16] = molecular target: Macrophage metalloelastase (Homo sapiens, UniProt P39900); test: Inhibition of MMP12 using Mca-Pro-cyclohexyl-Ala-Gly-Nva-His-Ala- Dap(Dnp)-NH2 as substrate by fluorometric analysis
[17] = Fraction unbound in rat; assay type: ADME, organism-based; details: in vivo

Matrix metalloproteinase-9, sequence (P14780 whole entry): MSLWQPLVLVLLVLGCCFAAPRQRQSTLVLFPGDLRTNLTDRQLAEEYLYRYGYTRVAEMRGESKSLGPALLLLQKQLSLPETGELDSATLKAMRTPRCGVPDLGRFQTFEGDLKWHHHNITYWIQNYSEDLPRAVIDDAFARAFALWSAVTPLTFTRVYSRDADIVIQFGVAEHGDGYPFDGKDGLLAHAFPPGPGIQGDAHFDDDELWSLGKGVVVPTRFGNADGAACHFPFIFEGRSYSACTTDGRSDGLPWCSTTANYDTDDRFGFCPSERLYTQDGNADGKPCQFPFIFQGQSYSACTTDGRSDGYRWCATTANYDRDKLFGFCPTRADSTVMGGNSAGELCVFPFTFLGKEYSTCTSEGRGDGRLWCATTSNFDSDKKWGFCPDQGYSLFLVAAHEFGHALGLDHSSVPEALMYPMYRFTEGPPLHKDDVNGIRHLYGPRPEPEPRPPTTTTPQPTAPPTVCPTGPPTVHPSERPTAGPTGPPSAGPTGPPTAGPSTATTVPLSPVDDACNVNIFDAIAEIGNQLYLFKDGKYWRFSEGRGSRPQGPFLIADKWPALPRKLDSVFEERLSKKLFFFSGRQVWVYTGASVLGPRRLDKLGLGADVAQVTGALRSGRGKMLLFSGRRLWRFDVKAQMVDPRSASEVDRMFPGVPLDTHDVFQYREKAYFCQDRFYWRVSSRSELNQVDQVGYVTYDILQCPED
Macrophage metalloelastase, sequence (P39900 whole entry): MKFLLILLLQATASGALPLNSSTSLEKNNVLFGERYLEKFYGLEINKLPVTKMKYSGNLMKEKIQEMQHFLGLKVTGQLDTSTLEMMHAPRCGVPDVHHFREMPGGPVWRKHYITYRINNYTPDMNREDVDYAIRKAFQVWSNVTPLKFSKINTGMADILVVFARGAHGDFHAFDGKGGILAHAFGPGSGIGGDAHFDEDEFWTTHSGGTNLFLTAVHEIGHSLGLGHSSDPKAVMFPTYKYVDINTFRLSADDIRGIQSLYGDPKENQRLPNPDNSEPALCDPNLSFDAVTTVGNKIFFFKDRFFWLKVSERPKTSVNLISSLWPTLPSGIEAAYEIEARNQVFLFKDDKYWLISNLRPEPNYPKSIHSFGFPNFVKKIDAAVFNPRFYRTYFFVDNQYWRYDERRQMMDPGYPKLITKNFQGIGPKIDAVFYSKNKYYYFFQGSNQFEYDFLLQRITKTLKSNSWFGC

CN1CCC(NC(=O)c2ccc(Oc3ccc(C#C[C@]4(O)CN5CCC4CC5)cc3)cc2)CC1
half-life [1]: 10.1 h
dose excreted [2]: < 1%
hepatocyte CLint [3]: < 2 µL/min/1e6 cells
clearance [4]: 16 mL/min/kg
fraction unbound [5]: 0.47
IC50 (Collagenase 3): 0.074 µM
Vd [6]: 12.6 L/kg
Vd [7]: 6.6 L/kg
clearance [8]: 3.6 mL/min/kg
pIC50 [9]: < 5
IC50 ([9]; read-out: IC50): > 10 µM
bioavailability [10]: 2%
bioavailability [11]: 47%
solubility thermodynamic [12]: > 2000 µM
INH [13]: > 10 µM
INH [14]: > 10 µM
pIC50 [15]: < 5
IC50 ([15]; read-out: IC50): > 10 µM
IC50 ([16]; read-out: IC50): > 8 µM
IC50 ([16]; read-out: pIC50 (converted)): 7.94 µM
fraction unbound [17]: 0.73
